# Columns and labels:
# [1] = molecular target: T1, beta-amyloid Aβ42 (베타아밀로이드(Aβ)42) (Homo sapiens, UniProt P05067); test: Inhibition of beta-amyloid (Aβ42) aggregation, Thioflavin T fluorescence; type: biochemical; details: Aβ42 10 μM; 37 °C, 24 h; ThT 45 μM; 485 nm / 528 nm
# T1 construct: Amyloid β 1-42 (Aβ42) 단백질은 DMSO에 1 mM으로 녹여
# [2] = molecular target: T2, beta-amyloid Aβ42 aggregates (베타아밀로이드 응집체) (Homo sapiens, UniProt P05067); test: Disaggregation of preformed beta-amyloid (Aβ42) aggregates, Thioflavin T fluorescence; type: biochemical; details: Aβ42 pre-incubated 24 h, then 24 h with compound at 37 °C; Aβ42 10 μM; ThT 45 μM
# T2 construct: Amyloid β 1-42 (Aβ42) 단백질은 DMSO에 1 mM으로 녹여
# [3] = molecular target: Acetylcholinesterase (AChE) (Electrophorus electricus, UniProt O42275); test: Acetylcholinesterase (AChE) inhibition, Ellman method; type: biochemical; details: acetylthiocholine substrate, DTNB, 405 nm, pH 8.2
# [4] = test system: inhibition of synaptic plasticity (LTP) by beta-amyloid (베타아밀로이드에 의한 시냅스 가소성(LTP) 억제); test: Improvement of beta-amyloid-induced inhibition of synaptic plasticity (LTP), electrophysiology in hippocampal slices; details: ICR mouse hippocampal slices; halenaquinol sulfate 10 μM 30 min, then with oligomeric beta-amyloid 1 μM for 2 h; HFS
# Acetylcholinesterase (AChE), sequence (O42275 whole entry): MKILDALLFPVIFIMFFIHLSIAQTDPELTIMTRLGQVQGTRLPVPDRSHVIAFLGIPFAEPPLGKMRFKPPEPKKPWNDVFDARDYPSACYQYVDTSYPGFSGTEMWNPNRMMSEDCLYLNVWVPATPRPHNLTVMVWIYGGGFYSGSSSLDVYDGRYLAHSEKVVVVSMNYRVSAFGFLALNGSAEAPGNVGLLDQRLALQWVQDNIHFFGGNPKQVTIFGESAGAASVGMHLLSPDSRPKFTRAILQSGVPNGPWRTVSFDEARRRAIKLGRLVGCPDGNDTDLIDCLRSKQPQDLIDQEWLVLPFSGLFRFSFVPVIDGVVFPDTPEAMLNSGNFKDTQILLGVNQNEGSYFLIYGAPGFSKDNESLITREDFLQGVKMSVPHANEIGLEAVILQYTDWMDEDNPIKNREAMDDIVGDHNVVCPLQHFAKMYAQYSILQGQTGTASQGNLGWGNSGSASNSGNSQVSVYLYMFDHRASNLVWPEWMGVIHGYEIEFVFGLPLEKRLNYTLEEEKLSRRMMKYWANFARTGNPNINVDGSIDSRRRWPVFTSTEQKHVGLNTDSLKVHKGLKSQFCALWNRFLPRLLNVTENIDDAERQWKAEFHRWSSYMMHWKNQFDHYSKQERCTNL
# T2 sequence (P05067 672-713): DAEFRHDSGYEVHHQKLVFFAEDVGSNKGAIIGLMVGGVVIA
# T1 sequence (P05067 672-713): as above
substance,measurement,setting,value
Halenaquinol sulfate,inhibitory activity against beta-amyloid aggregation,[1],농도 의존적으로 베타아밀로이드(10 μM)의 응집에 대해 저해활성
same,disaggregation of already aggregated beta-amyloid,[2],농도 의존적으로 이미 응집된 베타아밀로이드 응집체를 분해함
same,IC50,[3],17.9 µM
same,inhibition of acetylcholinesterase activity,[3],농도의존적으로 acetylcholinesterase 활성을 저해
same,suppression of the effect of oligomeric beta-amyloid on LTP,[4],베타아밀로이드의 효과를 유의적으로 억제
